Drawing on ChEMBL document CHEMBL3576837, “Targeted natural products discovery from marine cyanobacteria using combined phylogenetic and mass spectrometric evaluation” (2015), this text covers viability and Activity for two molecules.

What all share (format): functional
Assay [1] concerns HT-29. The assay is described as follows: Cytotoxicity against human HT-29 cells assessed as cell viability at 0.32 nM incubated for 48 hrs by MTT assay. As to conditions: HT-29, 48 h, read-out: Activity.
Assay [2] deals with HT-29. The assay is described as follows: Cytotoxicity against human HT-29 cells assessed as cell viability at 0.32 nM incubated for 48 hrs in presence of 4 nM largazole by MTT assay.
Assay [3] relates to HT-29. The assay is described as follows: Cytotoxicity against human HT-29 cells assessed as cell viability at 4 nM incubated for 48 hrs by MTT assay. The following applies: HT-29, 48 h, read-out: Activity.
The test system of assay [4] is HT-29. The assay is described as follows: Cytotoxicity against human HT-29 cells assessed as cell viability at 4 nM incubated for 48 hrs in presence of 0.32 nM dolastatin 10 by MTT assay. On the technique in general: Tetrazolium dyes change colour on reduction, which living cells bring about.

Turning to `CC[C@H](C)[C@@H]([C@@H](CC(=O)N1CCC[C@H]1[C@H](OC)[C@@H](C)C(=O)N[C@@H](Cc1ccccc1)c1nccs1)OC)N(C)C(=O)[C@@H](NC(=O)[C@H](C(C)C)N(C)C)C(C)C` [DOLASTATIN-10], the viability at 0.00032 µM in the assay on HT-29 [1] was found to be 80%. Besides, the Activity with HT-29 [2] is 55%.

Take `CCCCCCCC(=O)SCC/C=C/[C@@H]1CC(=O)NCc2nc(cs2)C2=N[C@@](C)(CS2)C(=O)N[C@@H](C(C)C)C(=O)O1` [LARGAZOLE]: the viability at 0.004 µM in the assay with HT-29 [3] amounted to 80%. Further, in the assay with HT-29 [4], the Activity turned out to be 55%.
